Assay: Dissolution of TT001 in I.V. formulation vehicle
Assay type: physicochemical
Conditions: 0.1 to 10 mg/ml in 40% w/v HPβCD solution in water for injection; a couple of hours for complete dissolution
Method: FORMULATION METHOD FOR THE PREPARATION OF TT001 FOR I.V. DOSING, 0.1 to 10 mg/ml The formulation method is applicable at concentrations in formulation between 0.1 and 10 mg/mL corresponding to 0.262 and 26.2 μmol/mL • TT001 M.W.: 381.8 g/mol • 10 The dissolution of TT001 is moderate, allow a couple of hours for complete dissolution.
• Preparation of 40% w/v HPβCD solution in water for injection • Excipients Hydroxypropyl-β-cyclodextrin, Kleptose, Roquette (HPβCD) 400 mg (40% w/v) • Water for injection to 1 ml (1.13 g) • is Appearance Clear • Density 1.13 g/cm^3
• Preparation of TT001 I.V. formulations between 0.1 and 10 mg/ml • TT001 parent form 0.1-10 mg • Vehicle (40% w/v HPβCD solution in water for injection) to 1 ml (1.13 g) • Appearance Clear • Density 1.13 g/cm^3 • Comments

For `C[C@@H](Oc1nnc(-c2ccncc2)n1C)c1cc(-c2cccc(Cl)c2)on1` [TT001, 4-[5-[(1R)-1-[5-(3-Chlorophenyl)-3-isoxazolyl]ethoxy]-4-methyl-4H-1,2,4-triazol-3-yl]pyridine], the dissolution was “moderate”.

Source: patent US20260124188A1, “mGluR receptor antagonists for use in prevention andor treatment of bone marrow lesions (BML) andor osteoporosis, cartilage loss, osteosclerosis and osteitis in a mammal” (Orphelion AB, priority 2022, published 2026)
